Reference: patent US20150018418A1, “COMPOSITIONS AND METHODS FOR PROLONGING PREGNANCY” (priority 2013, published 2015)

What was measured:
[1] = tested on: pregnant human female in PTL (uterine contractions); details: Example 1
Description: A pregnant person, at 29.5 weeks gestation, presented to the hospital in PTL during their first pregnancy. […] The patient's parent experienced PTL during one of their pregnancies, leading to premature birth of the patient at 30 weeks gestation. The patient's sibling also had experienced PTL with one of their pregnancies resulting in premature birth at 36 weeks gestation.
The patient was diagnosed with PTL and started on nifedipine 20 mg by mouth every 6 hours for tocolysis and magnesium sulfate 6 g as an intravenous infusion over 30 minutes followed by 2 g per hour for the next 12 hours for fetal neuroprotection. […] A course of steroids were also given for fetal lung maturation.
The patient then enrolled in a study conducted in advancement of the present disclosure and began therapy with gabapentin 300 mg, 3×/day (900 mg/day total). […] The following day the patient was discharged home only on gabapentin 300 mg, 3×/day and their previous outpatient dose of atenolol at 50 mg a day. […] They were instructed to increased their gabapentin dose to 600 mg, 3×/day.
Gabapentin was not administered while the patient was in the hospital. […] The patient was discharged.
Such contractions are the hallmark of preterm labor, which is known to result in premature birth in 60% of cases.

[2] = tested on: pregnant human in PTL (uterine contractions, uterine pressure); assay: Example 2: gabapentin maintenance therapy in a patient with preterm labor (case report); type: in vivo
Description: The cervix was dilated at 3.5-4 cm and regular uterine contractions were occurring at 11/hour. […] The uterine contractions slowly diminished and were completely resolved 14 hours after tocolysis was initiated.
The cervix was still 3.5-4 cm dilated at the time of enrollment. By the evening of the next day, the subject began feeling “uncomfortable” with a “pressure” feeling in their uterus. They were instructed the next day to increase their bedtime gabapentin dose to 600 mg and to continue 300 mg in the morning and in the afternoon. […] Two days later the subject reported feeling some recurrent uterine pressure especially noticeable for the hour before each gabapentin dose was taken. Gabapentin was increased to 600 mg, 3×/day and by the following day all of the pressure symptoms had resolved. The subject remained asymptomatic.
They continued on gabapentin 600 mg, 3×/day and remained asymptomatic. Three days later the subject noticed that their “water broke”. They were admitted to the hospital and confirmed to have preterm premature rupture of membranes (PPROM) with cervix still dilated to 4 cm. Gabapentin was continued at 600 mg, 3×/day. The subject remained asymptomatic throughout the next day; however, on the morning of the following day the subject began having regular uterine contractions about every 3-5 minutes and their cervix had now dilated to 7cm.
This discovery of gabapentin maintenance therapy resolving recurrent uterine contractions and pressure symptoms leading to a prolongation of pregnancy and preserving fetal survival is accordingly highly valuable to the public. Its value can be recognized at least in part because uterine contractions are an essential component of PTL, which precedes 40-50% of premature births (<37 weeks gestation) and as described above, premature birth occurs in 11.5% of all live births in the US, is the number one cause of neonatal mortality, and is responsible for half of the long-term neurological impairments in children. […]

[3] = tested on: preterm labor / premature birth; details: cited from earlier work
[4] = Serum half-life and clearance of gabapentin in humans; type: in vivo; details: expected from the serum half-life
From the text: The patient was discharged.

[5] = nifedipine 20 mg by mouth every 6 hours, with i.v. magnesium sulfate for fetal neuroprotection

For `NCC1(CC(=O)O)CCCCC1` [gabapentin, (1-aminomethyl)cyclohexaneacetic acid], the “recurrent uterine cramping and uterine contraction feelings” value ([1]; dose increased from 300 mg to 600 mg 3x/day, after the second 600 mg dose) was “fully resolved”, the “side effects after the first dose” value ([1]; gabapentin 300 mg 3x/day, resolved that same day) was “mild dizziness” and the “side effects from the higher dose” value ([1]; gabapentin 600 mg 3x/day) was “did not experience any side effects”. The “time remained stable without any uterine cramping” value ([1]; gabapentin 600 mg 3x/day) was 16 days, the “outcome after discontinuation of maintenance therapy” value ([1]; gabapentin discontinued for 8 days) was “associated with the IUFD” and the “uncomfortable pressure feeling in uterus” value ([2]; bedtime dose increased to 600 mg, 300 mg morning and afternoon, following morning) was “fully resolved”. The “recurrent uterine pressure symptoms” value ([2]; gabapentin increased to 600 mg 3x/day, by the following day) was “resolved”, the “use during pregnancy and premature birth” value ([3]; Fujii H, et al. Neurology 2013) was “associated with an increase in premature birth” and the “time to be fully cleared after discontinuation” value [4] was “about 30 hours”.

In the case of `O=S(=O)([O-])[O-].[Mg+2]` [magnesium sulfate], the “time to resolution of all uterine contractions” value ([1]; recurrent contractions, intravenous magnesium sulfate infusion 2 g/hour, gabapentin not administered) is reported as ≤ 5 h.

In the case of `COC(=O)C1=C(C)NC(C)=C(C(=O)OC)C1c1ccccc1[N+](=O)[O-]` [nifedipine], the “time to complete resolution of uterine contractions after tocolysis was initiated” value [1, 5] is reported as 12 h and the “time to complete resolution of uterine contractions after tocolysis was initiated” value [2, 5] is reported as 14 h.

For `CC(C)(C)NCC(O)c1cc(O)cc(O)c1` (stereo not shown) [terbutaline], the “maintenance tocolysis for prolonging pregnancy” value ([3]; patients with recent or resolved PTL, versus placebo) is given as “no more effective than maintenance placebo therapy”.
